Test results taken from patent US11413278B2, “Compounds and methods for promoting stress resistance” (priority 2015, dated 2022).
“Also recorded” adds a separate entry of the source. Where two headings read alike, the source gives them in different places.

Assays:
WI-38 cells [1] = assay: Long-term effects on cell viability (5 days, ATP; morphology, PI imaging); assay type: cell-based; details: for Luminescence signal for ATP measurement, day-1 Average / Luminescence signal for ATP measurement, day-2 Average / Luminescence signal for ATP measurement, day-3 Average / Luminescence signal for ATP measurement, day-4 Average / Luminescence signal for ATP measurement, day-5 Average: n = 6;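 on Luminescence signal for ATP measurement, day-2 Average: compounds at 10 µM with ATP read daily over 5 days of treatment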;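 on Luminescence signal for ATP measurement, day-3 Average: compounds at 10 µM with ATP read daily over 5 days of treatment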;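 on Luminescence signal for ATP measurement, day-4 Average: compounds at 10 µM with ATP read daily over 5 days of treatment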;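 on Luminescence signal for ATP measurement, day-5 Average: compounds at 10 µM with ATP read daily over 5 days of treatment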
NRF2 = assay: qPCR analysis of NRF2-regulated genes; assay type: cell-based, human; details: for fold induction at 10 µM: Homo sapiens
Procedure, shortened: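 Expression of HMOX1, NQO1, GCLC and GSTM1 measured by qPCR relative to B2M, PPIA and GAPDH. Cells were WI-38 fibroblasts exposed 24 hrs to 10 μM compound, with RNA and cDNA prepared via Cells-to-Ct. Where stated, cells were first transfected 36 hrs with FOXO3 or NRF2 siRNA at 10 nM.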

[2] = Summary score for characterization of 38 core set hits; details: for D = Triple resistant: 2-point score, multiplex resistance (cadmium, MMS, H2O2); for C = H2O2- & Cd-resistant: score, resistance to both H2O2 and cadmium
Procedure, shortened: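 Hits from a small-molecule screen for H2O2 resistance were scored across characterization assays. Multiplex resistance, FOXO3 and/or NRF2 activation and mTOR down-regulation each earned 2 points. C. elegans lifespan, tested in 4 to 6 independent trials, scored 0–2, and DNA-damaging or cytotoxic effects in cultured human cells cost one point.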

WI-38 cells [3] = assay: Propidium iodide (PI) cell-death imaging upon H2O2 stress; assay type: cell-based, human; details: for Assay 7: H2O2-resistant, at 10 uM, validated by propidium iodide (PI) cell-death imaging: w/H2O2, 3 hrs/4 hrs/5 hrs, YES/NO; for cytotoxicity at 10 µM: Homo sapiens, WI-38
[4] = system: human dermal fibroblast (HDF) primary cells; assay: H2O2-resistance in primary human dermal fibroblasts; assay type: cell-based; details: for Assay 6: H2O2-resistant, at 10 uM, human dermal fibroblast (HDF) primary cells: YES/NO; for fold induction at 10 µM: Homo sapiens
[5] = Batch 1, 10 μM, day-0 luminescence = 320956 ± 24708
[6] = 10 μM, 24 hrs, WI-38 cells, qPCR, normalized to B2M, n = 4
[7] = WI-38 cells, 10 μM, 24 hrs, n=4, qPCR normalized by B2M
[8] = rounded fold change, WI-38 cells, 10 μM, 24 hrs (RP29 for Gr-4D)
[9] = Batch 2, 10 μM, day-0 luminescence = 229312 ± 17487

COc1cc2c(no[n+]2[O-])n2nnnc12 [O11]
Long-term cell toxicity (cell number, morphology, PI-positive dead cells) (WI-38 cells [1]; 10 μM, up to 5 days, no H2O2): reduced cell number substantially and increased the fraction of PI-positive dead cells; also recorded: less cells, and more cells scored positive for propidium iodide
Luminescence signal for ATP measurement, day-1 Average (WI-38 cells [1]; [5]): 310373
Luminescence signal for ATP measurement, day-2 Average (WI-38 cells [1]; [5]): 412288
Luminescence signal for ATP measurement, day-3 Average (WI-38 cells [1]; [5]): 484520
Luminescence signal for ATP measurement, day-4 Average (WI-38 cells [1]; [5]): 642267
ATP luminescence by day-5 normalized (WI-38 cells [1]; Batch 1, 10 μM, day-5, DMSO ctrl = 100.0%): 61.7%
Luminescence signal for ATP measurement, day-5 Average (WI-38 cells [1]; Batch 1, 10 μM, day-5, day-0 luminescence = 320956 ± 24708): 633963
Q = Potential toxicity (WI-38 cells [1]; negative point, cultured human cells): 1
O = Potential toxicity (WI-38 cells [1]; summary score): 1
Induction of at least two NRF2-regulated genes (HMOX1, NQO1, GCLC, GSTM1) (NRF2; 10 μM, 24 hrs, WI-38): could induce expression of at least two genes
GSTM1 expression, normalized fold change (NRF2-regulated gene) (NRF2; [6]): GSTM1 1.30, fold
NQO1 expression, normalized fold change (NRF2-regulated gene) (NRF2; [6]): NQO1 2.03, fold
F = Potential NRF2 Activation (NRF2; 2-point score): 0
Induction of NRF2-regulated genes: GSTM1 normalized fold-change (NRF2; Assay 12(o), at 10 uM, qPCR): GSTM1 1.30, fold-change
Induction of NRF2-regulated genes: NQO1 normalized fold-change (NRF2; Assay 12(o), at 10 uM, qPCR): NQO1 2.03, fold-change
GCLC Normalized fold change (NRF2; [7]): 1.333 fold change
GSTM1 Normalized fold change (NRF2; [7]): 1.304 fold change
HMOX1 Normalized fold change (NRF2; [7]): 1.069 fold change
NQO1 Normalized fold change (NRF2; [7]): 2.027 fold change
Summary of effects on NRF2-regulated genes: GSTM1 (NRF2; [8]): 1.30,
Summary of effects on NRF2-regulated genes: NQO1 (NRF2; [8]): 2.03,
F = Potential NRF2 Activation (NRF2; summary score): 0
D = Triple resistant [2]: 0
C = H2O2- & Cd-resistant [2]: 1
S = Sum of Negative scores ([2]; sum of columns Q and R): 1
Assay 7: H2O2-resistant, at 10 uM, validated by propidium iodide (PI) cell-death imaging (WI-38 cells [3]; 10 uM): YES
Percentage of propidium iodide-positive dead cells (under H2O2 stress treatment), 3 hrs (WI-38 cells [3]; H2O2 3 hrs, 10 uM, n = 6, negative control 5.44% ± 0.79%): 2.19% ± 0.35%,
Percentage of propidium iodide-positive dead cells (under H2O2 stress treatment), 4 hrs (WI-38 cells [3]; H2O2 4 hrs, 10 uM, n = 6, negative control 16.81% ± 1.42%): 2.80% ± 0.49%,
Percentage of propidium iodide-positive dead cells (under H2O2 stress treatment), 5 hrs (WI-38 cells [3]; H2O2 5 hrs, 10 uM, n = 6, negative control 22.50% ± 1.53%): 2.90% ± 0.70%,
Percentage of propidium iodide-positive dead cells (under H2O2 stress treatment), at 10 uM (WI-38 cells [3]; pre-treatment at 10 uM, 3.5 hours of H2O2, DMSO control 27.4% ± 6.5%, */**/*** = reduced by one/two/three standard deviations): 26.5%
Experiment 1, HDF cells (under H2O2 stress treatment), at 10 uM (fold change) ([4]; Experiment 1, HDF cells): 16.57 fold change
Experiment 2, HDF cells (under H2O2 stress treatment), at 10 uM (fold change) ([4]; Experiment 2, HDF cells): 55.68 fold change
Assay 6: H2O2-resistant, at 10 uM, human dermal fibroblast (HDF) primary cells [4]: YES

Nc1ccccc1S(=O)(=O)Nc1cccc2cccnc12 [Gr-3C]
Luminescence signal for ATP measurement, day-1 Average (WI-38 cells [1]; [9]): 190045
Luminescence signal for ATP measurement, day-2 Average (WI-38 cells [1]; [9]): 194191
Luminescence signal for ATP measurement, day-3 Average (WI-38 cells [1]; [9]): 270505
Luminescence signal for ATP measurement, day-4 Average (WI-38 cells [1]; [9]): 244033
Luminescence signal for ATP measurement, day-5 Average (WI-38 cells [1]; Batch 2, 10 μM, day-5, day-0 luminescence = 229312 ± 17487): 265285
viability at 10 µM (WI-38 cells [1]; Homo sapiens, WI-38, 120 h, Batch 2, 10 μM, day-5, DMSO ctrl = 100.0%, read-out: ATP luminescence by day-5 normalized): 47.7%
O = Potential toxicity (WI-38 cells [1]; human, 5 days, 10 μM): 0
Q = Potential toxicity (WI-38 cells [1]; human, 5 days, 10 μM): 1
F = Potential NRF2 Activation (NRF2; 2-point score): 0
fold induction at 10 µM (NRF2; 24 h, Assay 12(o), at 10 uM, qPCR, read-out: Induction of NRF2-regulated genes: HMOX1 normalized fold-change): 0.86
fold induction at 10 µM (NRF2; WI-38 cells, 10 μM, 24 hrs, n=4, qPCR normalized by B2M, read-out: GCLC Normalized fold change): 0.991
fold induction at 10 µM (NRF2; WI-38 cells, 10 μM, 24 hrs, n=4, qPCR normalized by B2M, read-out: GSTM1 Normalized fold change): 1.45
fold induction at 10 µM (NRF2; WI-38 cells, 10 μM, 24 hrs, n=4, qPCR normalized by B2M, read-out: HMOX1 Normalized fold change): 1.12
fold induction at 10 µM (NRF2; WI-38 cells, 10 μM, 24 hrs, n=4, qPCR normalized by B2M, read-out: NQO1 Normalized fold change): 1.19
F = Potential NRF2 Activation (NRF2; summary score): 0
D = Triple resistant [2]: 0
S = Sum of Negative scores ([2]; human): 2
C = H2O2- & Cd-resistant [2]: 0
Assay 7: H2O2-resistant, at 10 uM, validated by propidium iodide (PI) cell-death imaging (WI-38 cells [3]; 10 uM): YES
cytotoxicity at 10 µM (WI-38 cells [3]; H2O2 3 hrs, 10 uM, n = 6, negative control 5.44% ± 0.79%, read-out: Percentage of propidium iodide-positive dead cells (under H2O2 stress treatment), 3 hrs): 5.13%
cytotoxicity at 10 µM (WI-38 cells [3]; pre-treatment at 10 uM, 3.5 hours of H2O2, DMSO control 27.4% ± 6.5%, */**/*** = reduced by one/two/three standard deviations, read-out: Percentage of propidium iodide-positive dead cells (under H2O2 stress treatment), at 10 uM): 3.1%
fold induction at 10 µM ([4]; Experiment 1, HDF cells, read-out: Experiment 1, HDF cells (under H2O2 stress treatment), at 10 uM (fold change)): 6.59
fold induction at 10 µM ([4]; Experiment 2, HDF cells, read-out: Experiment 2, HDF cells (under H2O2 stress treatment), at 10 uM (fold change)): 1.69
Assay 6: H2O2-resistant, at 10 uM, human dermal fibroblast (HDF) primary cells [4]: YES
